The text below walks through data of EP0155094A1, “2-Arylimidazo(4,5-c)pyridines” (ELI LILLY AND COMPANY, priority 1984, dated 1985).

Counter-ions that a name gives are not always drawn.

Test [1] deals with cardiac contractility. The test is described as follows: Cardiac contractility in anesthetized dogs. The format is in vivo, Mongrel dogs. Conditions: Canis lupus familiaris, iv, i.v. bolus, read-out: ED50 (dose, i.v., which produced a peak increase of 50% over control). As for the experimental part:
Mongrel dogs of either sex ranging in weight from 7 to 14 kg. were used. Anesthesia was induced with sodium pentobarbital (30 mg./kg., i.v.) and maintained with supplemental doses as required. A positive-pressure pump was used to ventilate the dogs through an endotracheal tube (18 strokes/minute, 20 ml./kg. stroke 1), and a heating pad kept the body temperature at 37-38°C. Femoral arterial blood pressure was measured through a polyethylene catheter filled with heparin solution (16 units/ml.) and connected to a Statham pressure transducer. A strain-gauge arch sutured to the right ventricle of the heart measured cardiac contractility. Tension on the gauge was adjusted to 50 g. and the gain of the recorder (Beckman dynograph) was set so that 50 g. caused a 10-mm. pen deflection; cardiac contractile tension was measured as millimeters of pen deflection or grams of tension. The drug was administered following a 30-45 minute equilibrium period as an i.v. bolus (2-5 ml.) in a normal saline vehicle. […] The maximum effects on contractility at various dose levels were calculated as a percent of control (control = 100 percent). The compound of Example 1 produced an ED50 (dose, i.v., which produced a peak increase of 50% over control) of 0.030 mg./kg. while the compound of Example 2 gave an ^ED50 of 6 mcg./kg.

Test [2] deals with Isolated Cat Papillary Muscles. Kind of test: Positive inotropic activity in isolated cat papillary muscles. Also noted: species or system Cats. Conditions: Felis catus, maximum contractility, isolated cat papillary muscle, read-out: contractility, percent of control (control = 100 percent); for activity at 100 µM: 10^-4 M; for activity at 10 µM: 10^-5 M. Here is the method:
Cats of either sex were anesthetized with Metofane (1,1-difluoro-2,2-dichloroethyl methyl ether, Pittman-Moore) their hearts immediately removed and the papillary muscles dissected and suspended in individual organ baths. A platinum hook secured one end of the muscle to an electrode mounted in the bottom of the bath, and a silk thread attached the tendon to a Statham isometric transducer. The baths contained Krebs-Henseleit solution (36°C., bubbled with 95 percent oxygen - 5 percent carbon dioxide) of the following millimolar composition: NaCl, 118; KCl, 4.5; CaCl2, 2.5; KH2PO4, 1.1; MgS04, 1.2; NaHCO3, 25; and glucose, 11.
A base-line tension of 1.5 g. was applied to each muscle. Square-wave pulses (5.0 msec. in duration, 20 percent above threshold voltage) delivered through the hook electrode and a second electrode positioned near the top of the muscle evoked 12 contractions/minute, which were recorded on a Grass polygraph. After the muscles were equilibrated for 60 minutes, drugs were introduced in normal saline to bring the final concentration of the drug to 10 5 or 10^-4 molar. Increases in contractility were tabulated as millimeters of pen deflection in excess of the baseline values. In each experiment the maximum contractility was measured. As a percent of control (control = 100 percent), the compound of Example 1 produced a contractility of 149% at 10^-5 M and 168% at 10^-4 M and the compound of Example 2 gave a contractility of 240% at 10^-5M and 326% at 10^-4M.

As to `COc1cc(NS(C)(=O)=O)ccc1-c1nc2cnccc2[nH]1` [Example 1, 2-(2-Methoxy-4-methylsulfonamidophenyl)imidazo[4,5-c]pyridine], the ED50 in test [1] came to 0.03 mg/kg. In test [2], the activity at 100 µM worked out at 168% and the activity at 10 µM is 149%.

Turning to `COc1cc(OS(C)(=O)=O)ccc1-c1nc2cnccc2[nH]1` [Example 2, 4-(Imidazo[4,5-c]pyridin-2-yl)-3-methoxyphenol, methanesulfonate (ester) hydrochloride], the ED50 in test [1] turned out to be 0.006 mg/kg. In test [2], the activity at 100 µM came out at 326% and the activity at 10 µM was found to be 240%.

A word on the ED50: it is the dose that gives a 50% effect, or the effect in half of the subjects.
